# Reference: patent publication US20040235722A1, “Epf receptor assays, compounds and therapeutic compositions” (priority 2001, published 2004)
# Several values for one entry are separate records, joined by “and”; a condition that tells them apart may be missing. Equal entries are not always repeated. Where two headings read alike, the source gives them in different places. Where no end group is shown, it is not given here.
# T1: hDRR7 receptor (Homo sapiens, UniProt Q96LB1)
# T1 construct: expressed in transfected cells; host or cells: HEK293
# T1 sequence (Q96LB1 1-330): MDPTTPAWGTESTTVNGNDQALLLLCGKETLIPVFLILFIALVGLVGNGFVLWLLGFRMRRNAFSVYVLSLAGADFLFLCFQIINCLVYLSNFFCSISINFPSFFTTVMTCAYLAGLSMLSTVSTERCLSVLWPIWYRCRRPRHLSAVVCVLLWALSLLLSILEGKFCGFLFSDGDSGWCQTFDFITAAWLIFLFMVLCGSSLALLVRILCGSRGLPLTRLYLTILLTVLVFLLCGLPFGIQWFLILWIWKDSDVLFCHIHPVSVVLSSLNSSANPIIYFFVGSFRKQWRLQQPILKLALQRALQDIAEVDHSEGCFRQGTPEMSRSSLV
# T2: GPCR RC56.3.1 (adenine receptor) (Rattus norvegicus, UniProt Q7TN49)
# T2 construct: expressed in transfected cells; host or cells: COS cells (membranes)
# T2 sequence (Q7TN49 1-304): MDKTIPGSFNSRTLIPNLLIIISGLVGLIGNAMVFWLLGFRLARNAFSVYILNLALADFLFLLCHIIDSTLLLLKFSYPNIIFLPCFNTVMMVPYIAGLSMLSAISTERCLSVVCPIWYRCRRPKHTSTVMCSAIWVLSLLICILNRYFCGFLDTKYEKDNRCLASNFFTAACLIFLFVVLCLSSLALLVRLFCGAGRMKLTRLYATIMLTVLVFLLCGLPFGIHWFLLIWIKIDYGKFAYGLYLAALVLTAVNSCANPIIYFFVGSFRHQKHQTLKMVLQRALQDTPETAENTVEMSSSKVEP
# T3: human Dorsal Root Receptor 7 (hDRR7) (human, UniProt Q96LB1 1-330)
# T3 sequence: T1 sequence (Q96LB1 1-330)
# Experiments:
# hDRR4 [1] = target: T4, hDRR4 (Homo sapiens, UniProt Q96LB2); assay: FLIPR calcium assay, HEK293 cells transiently co-transfected with hDRR4 and Gα16; type: cell-based; parameters: The full length reading frame was inserted into the mammalian expression vector pcDNA3; expressed in transfected cells; host or cells: HEK293
# Method: (§1) The hDRR4 expression plasmid or the hDRR7 expression plasmid was transiently co-transfected with a Gα16-pcDNA3 contruct using the FuGENE 6 reagent (Roche Molecular Biochemicals, Mannheim, Germany) into HEK293 cells. The cells were loaded with Fluo-4 (Molecular Probes, Eugene, Oreg., U.S.A.) according to the recommendations of the supplier. Subsequently the cells were assayed in the FLIPR instrument (Molecular Devices, Sunnyvale, Calif., U.S.A.) for Ca^2+ transients.
# (§2) Activation of orphan GPCR hDRR4 (SEQ ID NO:2) by the hDRR binding fragment of EPF (SEQ ID NO:8) at a test concentration of 150 nM was measured in Hek293 cells co-transfected with Gα16-pcDNA. Relative fluorescence units (RFU) were determined by loading the cells with Fluo-4 (Molecular Probes, Eugene, Oreg., U.S.A.).
# as §1, with “construct” for “contruct”, “Fluo4” for “Fluo-4”
# (§3) The purified peptides or dried tissue fractions were dissolved in calcium buffer and loaded onto regular multi-well 96 plates. Subsequently the cells were assayed in the FLIPR instrument (Molecular Devices, Sunnyvale, Calif., U.S.A.) for Ca^2+ transients. For the EPF-related peptides the following pEC50 values were determined;
# hDRR7 receptor = target: T1, hDRR7 receptor; assay: FLIPR calcium assay, HEK293 cells transiently co-transfected with hDRR7 and Gα16; type: cell-based; conditions: for EC50: MrgX2 taken as hDRR7, FLIPR Ca2+ transients (FIG. 10), read-out: MrgX2 (pEC50) (converted)
# Method: as §1
# as §1, with “The” for “The hDRR4 expression plasmid or the”
# (§4) Activation of orphan GPCR hDRR7 (SEQ ID NO:12) by the HDRR binding fragment of EPF (SEQ ID NO: 8) at a test concentration of 150 nM after transient co-transfection with Gα16-pcDNA into HEK293 cells. Relative fluorescence units (RFU) were determined by loading the cells with Fluo-4 (Molecular Probes, Eugene, Oreg., U.S.A.).
# as §1, with “construct” for “contruct”, “Fluo4” for “Fluo-4”
# as §3
# [2] = tested on: Hek 293 cells only transfected with the Gα16-pcDNA expression vector; assay: FLIPR calcium assay, control cells without receptor; type: cell-based, human; conditions: test concentration 150 nM, no hDRR receptor (FIG. 3, FIG. 4)
# Method: as §1, §2, §4
# hDRR4 [3] = target: T4, hDRR4; assay: Stimulation of hDRR4 with angiotensin II and III (re-test of WO 99/32519); conditions: claimed in WO 99/32519; re-examined by present inventors
# [4] = target: T2, GPCR RC56.3.1 (adenine receptor); assay: [3H]Adenine binding to RC56.1.3 transfected cells; conditions: tritiated adenine
# Method: (§5) The membranes were prepared as total particulate fractions. The cell lines were cultured to 90% confluency on 145 mm petri dishes and treated with 5 mM sodium butyrate, 24 hours before collection. The culturing medium was removed and the cells were washed twice with ice-cold phosphate-buffered saline (PBS w/o Ca^2+ and Mg^2+), scraped from the plates in 50 mM Tris-HCl buffer, pH 7.4, and collected by centrifugation (10 minutes at 16,000 RPM at 4° C.). The cell pellet was re-suspended in hypotonic 5 mM Tris-HCl buffer, pH 7.4, and homogenized with an Ultra Turrax homogenizer. The homogenate was centrifuged at 18,000 RPM for 20 minutes at 4° C. The final pellet was re-suspended in 50 mM Tris-HCl buffer, pH 7.4 and stored in aliquots at −70° C. A protein determination was performed using the Bradford protein assay (Biorad) using bovine serum albumin (BSA) as standard.
# (§6) [^3H]Adenine binding experiments were performed to characterize transiently transfected cell lines. Membranes were thawed on ice and diluted in 50 mM HEPES buffer, pH 7.4 supplemented with 10 mM MgCl2 and 1 mM EGTA. […] Samples were counted in a β-scintillation counter after at least 6 hours to permit the glass fiber filters to become uniformly translucent. […]
# (§7) Specific binding was calculated as difference between counts in the presence and absence of 1 μM unlabeled adenine.
# hDRR4 [5] = target: T4, hDRR4; assay: [3H]Adenine binding to membranes of hDRR4 transfected cells; conditions: tritiated adenine
# Method: as §5, §6, §7
# [6] = target: T5, human Dorsal Root Receptor 4 (hDRR4) (human, UniProt Q96LB2 1-322); assay: cell-based or functional assay
# [7] = target: T3, human Dorsal Root Receptor 7 (hDRR7); assay: cell-based or functional assay
# [8] = target: T5, human Dorsal Root Receptor 4 (hDRR4); assay: cell-based or functional assay; remark: listed apart in the source
# [9] = target: T3, human Dorsal Root Receptor 7 (hDRR7); assay: cell-based or functional assay; remark: listed apart in the source
# [10] = MrgX1 = hDRR4, FLIPR Ca2+ transients (FIG. 9), read-out: MrgX1 (pEC50) (converted)
# T4 sequence (Q96LB2 whole entry): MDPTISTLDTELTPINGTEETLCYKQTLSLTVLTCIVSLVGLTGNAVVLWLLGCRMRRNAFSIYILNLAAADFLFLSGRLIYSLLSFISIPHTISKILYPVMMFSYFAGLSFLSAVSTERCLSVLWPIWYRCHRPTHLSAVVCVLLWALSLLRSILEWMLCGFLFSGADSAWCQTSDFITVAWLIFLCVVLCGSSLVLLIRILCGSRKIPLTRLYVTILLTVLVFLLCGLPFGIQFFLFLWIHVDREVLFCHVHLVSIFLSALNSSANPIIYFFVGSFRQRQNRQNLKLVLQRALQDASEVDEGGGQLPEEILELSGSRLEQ
# T5 sequence (Q96LB2 whole entry): as above
molecule,measurement,setting,value
"LGQAFRKFLPLFDRVLVE [EPF 1-18, LGQAFRKFLPLFDRVLVE]",EC50,hDRR4 [1]; [10],99.3 nM
same,EC50,hDRR7 receptor,820 nM
"AFRKFLPLFDRVLVERSA [SEQ ID NO:8, AFRKFLPLFDRVLVERSA]",Response of cells transfected with Gα16 only,[2],did not response
same,EC50,"hDRR4 [1]; FLIPR calcium assay, different test concentrations (FIG. 7), read-out: EC50-value on hDRR4 receptor",10.6 to 12 nM and 12 nM
same,Activation of hDRR4 (relative fluorescence units),"hDRR4 [1]; test concentration 150 nM, Fluo-4 (FIG. 3)",Activation
same,Activation of hDRR7 (relative fluorescence units),"hDRR7 receptor; test concentration 150 nM, Fluo-4 (FIG. 4)",Activation
"angiotensin II (DRVYIHPF; Angiotensin-2; UniProt P01019 25-32, looked up)",Stimulation of hDRR4 by angiotensin (angiotensin receptor characterization),hDRR4 [3],could not be confirmed
"LGQAFRKFLPLFDRVL [EPF 1-16, LGQAFRKFLPLFDRVL]",EC50,hDRR4 [1]; [10],15.1 nM
same,EC50,hDRR7 receptor,873 nM
angiotensin III,Stimulation of hDRR4 by angiotensin (angiotensin receptor characterization),hDRR4 [3],could not be confirmed
Nc1ncnc2nc[nH]c12 [adenine],Specific adenine binding to RC56.1.3 transfected cells,[4],clear specific adenine binding
same,Specific response on hDRR4 in FLIPR-based cellular assay,hDRR4 [1]; HEK293 with and without co-transfection of chimeric G proteins or Gα16,no specific response
same,Specific adenine binding to hDRR4,hDRR4 [5],no specific adenine binding
AFRKFLPLFDRVLVERSA [hDRR binding fragment of EPF (SEQ ID NO:8)],EC50-value,[6],10.6 nM and 6 to 12 nM
same,"EC50-value, FLIPR calcium assay",[6],12 nM
same,"EC50-value, FLIPR calcium assay",[7],354 nM
"LGQAFRKFLPLFDRVL [EPF 1-16 (LGQAFRKFLPLFDRVL, SEQ ID NO: 21)]","pEC50, FLIPR Ca2+ transients",[8],7.82 pEC50
same,"pEC50, FLIPR Ca2+ transients",[9],6.06 pEC50
"LGQAFRKFLPLFDRVLVE [EPF 1-18 (LGQAFRKFLPLFDRVLVE, SEQ ID NO: 19)]","pEC50, FLIPR Ca2+ transients",[8],7 pEC50
same,"pEC50, FLIPR Ca2+ transients",[9],6.09 pEC50
